Data published in ChEMBL document CHEMBL4145548, “Pyrimidine-chloroquinoline hybrids: Synthesis and antiplasmodial activity” (Eur J Med Chem, 2018).
Values after ≈ are worked out from the molar mass of the structure shown.

Tested on: Plasmodium falciparum
Assay: microbe, parasite or virus in culture
Conditions: Dd2
Description: Antiplasmodial activity against chloroquine-resistant Plasmodium falciparum Dd2 by LDH release assay

| SMILES | IC50 [nM] |
| --- | --- |
| Cc1nc(OCc2cn(CCNc3ccnc4cc(Cl)ccc34)nn2)nc(-c2ccccc2)c1C(=O)OC(C)C | 2000 |
| CCOC(=O)c1c(C)nc(OCc2cn(CCCNc3ccnc4cc(Cl)ccc34)nn2)nc1-c1ccccc1 | 1370 |
| Cc1nc(OCc2cn(CCCNc3ccnc4cc(Cl)ccc34)nn2)nc(-c2ccccc2)c1C(=O)OC(C)C | 610 |
| CCOC(=O)c1c(C)nc(OCc2cn(CCCNc3ccnc4cc(Cl)ccc34)nn2)nc1C | 1110 |
| Cc1nc(OCc2cn(CCNc3ccnc4cc(Cl)ccc34)nn2)nc(-c2ccc([N+](=O)[O-])cc2)c1C(=O)OC(C)C | 990 |

Tested on: Vero
Assay: Cytotoxicity against African green monkey Vero cells assessed as reduction in cell viability by MTT assay
Assay type: cell-based
Conditions: Chlorocebus sabaeus

| SMILES | IC50 [nM] |
| --- | --- |
| Cc1nc(OCc2cn(CCNc3ccnc4cc(Cl)ccc34)nn2)nc(-c2ccccc2)c1C(=O)OC(C)C | 149000 |
| CCOC(=O)c1c(C)nc(OCc2cn(CCCNc3ccnc4cc(Cl)ccc34)nn2)nc1-c1ccccc1 | 153000 |
| Cc1nc(OCc2cn(CCCNc3ccnc4cc(Cl)ccc34)nn2)nc(-c2ccccc2)c1C(=O)OC(C)C | 28500 |
| CCOC(=O)c1c(C)nc(OCc2cn(CCCNc3ccnc4cc(Cl)ccc34)nn2)nc1C | > 201000 |
| Cc1nc(OCc2cn(CCNc3ccnc4cc(Cl)ccc34)nn2)nc(-c2ccc([N+](=O)[O-])cc2)c1C(=O)OC(C)C | 150000 |

Tested on: not listed separately
Assay: n-octanol-phosphate buffer distribution coefficient, log D of the compound at pH 7.4 after 1 hr by HPLC method
Assay type: physicochemical
Conditions: not given

| SMILES | logD at 1 h |
| --- | --- |
| Cc1nc(OCc2cn(CCNc3ccnc4cc(Cl)ccc34)nn2)nc(-c2ccccc2)c1C(=O)OC(C)C | 1.21 |
| CCOC(=O)c1c(C)nc(OCc2cn(CCCNc3ccnc4cc(Cl)ccc34)nn2)nc1-c1ccccc1 | 1.19 |
| Cc1nc(OCc2cn(CCCNc3ccnc4cc(Cl)ccc34)nn2)nc(-c2ccccc2)c1C(=O)OC(C)C | 1.72 |
| CCOC(=O)c1c(C)nc(OCc2cn(CCCNc3ccnc4cc(Cl)ccc34)nn2)nc1C | 0.42 |
| Cc1nc(OCc2cn(CCNc3ccnc4cc(Cl)ccc34)nn2)nc(-c2ccc([N+](=O)[O-])cc2)c1C(=O)OC(C)C | 0.88 |

Tested on: Plasmodium falciparum
Assay: microbe, parasite or virus in culture
Conditions: NF54
Description: Antiplasmodial activity against chloroquine-sensitive Plasmodium falciparum NF54 by LDH release assay

| SMILES | IC50 [nM] |
| --- | --- |
| Cc1nc(OCc2cn(CCNc3ccnc4cc(Cl)ccc34)nn2)nc(-c2ccccc2)c1C(=O)OC(C)C | 640 |
| CCOC(=O)c1c(C)nc(OCc2cn(CCCNc3ccnc4cc(Cl)ccc34)nn2)nc1-c1ccccc1 | 890 |
| Cc1nc(OCc2cn(CCCNc3ccnc4cc(Cl)ccc34)nn2)nc(-c2ccccc2)c1C(=O)OC(C)C | 330 |
| CCOC(=O)c1c(C)nc(OCc2cn(CCCNc3ccnc4cc(Cl)ccc34)nn2)nc1C | 700 |
| Cc1nc(OCc2cn(CCNc3ccnc4cc(Cl)ccc34)nn2)nc(-c2ccc([N+](=O)[O-])cc2)c1C(=O)OC(C)C | 180 |

Tested on: not listed separately
Assay: Aqueous solubility in pH 7.4 PBS buffer after 24 hrs by HPLC analysis
Assay type: physicochemical
Conditions: not given

| SMILES | solubility at 24 h [µM] |
| --- | --- |
| Cc1nc(OCc2cn(CCNc3ccnc4cc(Cl)ccc34)nn2)nc(-c2ccccc2)c1C(=O)OC(C)C | 3.21 (≈ 1.79 µg/mL) |
| CCOC(=O)c1c(C)nc(OCc2cn(CCCNc3ccnc4cc(Cl)ccc34)nn2)nc1-c1ccccc1 | 3.11 (≈ 1.74 µg/mL) |
| Cc1nc(OCc2cn(CCCNc3ccnc4cc(Cl)ccc34)nn2)nc(-c2ccccc2)c1C(=O)OC(C)C | 1.21 (≈ 0.692 µg/mL) |
| CCOC(=O)c1c(C)nc(OCc2cn(CCCNc3ccnc4cc(Cl)ccc34)nn2)nc1C | 8.01 (≈ 3.97 µg/mL) |
| Cc1nc(OCc2cn(CCNc3ccnc4cc(Cl)ccc34)nn2)nc(-c2ccc([N+](=O)[O-])cc2)c1C(=O)OC(C)C | 7.03 (≈ 4.24 µg/mL) |

Tested on: not listed separately
Assay: in vitro
Conditions: monkey, Vero cells
Description: Selectivity index, ratio of IC50 for African green monkey Vero cells to IC50 for chloroquine-sensitive Plasmodium falciparum NF54

| SMILES | selectivity ratio |
| --- | --- |
| Cc1nc(OCc2cn(CCNc3ccnc4cc(Cl)ccc34)nn2)nc(-c2ccccc2)c1C(=O)OC(C)C | 232 |
| CCOC(=O)c1c(C)nc(OCc2cn(CCCNc3ccnc4cc(Cl)ccc34)nn2)nc1-c1ccccc1 | 172 |
| Cc1nc(OCc2cn(CCCNc3ccnc4cc(Cl)ccc34)nn2)nc(-c2ccccc2)c1C(=O)OC(C)C | 86.4 |
| CCOC(=O)c1c(C)nc(OCc2cn(CCCNc3ccnc4cc(Cl)ccc34)nn2)nc1C | > 287 |
| Cc1nc(OCc2cn(CCNc3ccnc4cc(Cl)ccc34)nn2)nc(-c2ccc([N+](=O)[O-])cc2)c1C(=O)OC(C)C | 833 |

Tested on: not listed separately
Assay: Solubility in n-octanol at pH 7.4 after 24 hrs by HPLC analysis
Assay type: physicochemical
Conditions: not given

| SMILES | solubility at 24 h [µM] |
| --- | --- |
| Cc1nc(OCc2cn(CCNc3ccnc4cc(Cl)ccc34)nn2)nc(-c2ccccc2)c1C(=O)OC(C)C | 53.1 (≈ 29.6 µg/mL) |
| CCOC(=O)c1c(C)nc(OCc2cn(CCCNc3ccnc4cc(Cl)ccc34)nn2)nc1-c1ccccc1 | 48.3 (≈ 27 µg/mL) |
| Cc1nc(OCc2cn(CCCNc3ccnc4cc(Cl)ccc34)nn2)nc(-c2ccccc2)c1C(=O)OC(C)C | 63.5 (≈ 36.3 µg/mL) |
| CCOC(=O)c1c(C)nc(OCc2cn(CCCNc3ccnc4cc(Cl)ccc34)nn2)nc1C | 21.2 (≈ 10.5 µg/mL) |
| Cc1nc(OCc2cn(CCNc3ccnc4cc(Cl)ccc34)nn2)nc(-c2ccc([N+](=O)[O-])cc2)c1C(=O)OC(C)C | 54.4 (≈ 32.8 µg/mL) |
